From patent publication US20050080122A1, “Anti-viral compounds” (priority 2002, published 2005)

Key:
Rhinovirus = experiment: Antiviral assay: virus yield reduction measured by plaque assay in infected cells; format: cell-based
Description: (§1) Representative viruses of the Rhinovirus and Enterovirus genera were chosen for study: Rhinovirus 2 (RV2), Rhinovirus 14 (RV14), Coxsackievirus […] (CVB3) and Echovirus 11 (EV11). Each virus is propogated in two different cell lines as follows: RV2 and RV14 in HEL and HeLa cells, CVB3 in BS-C-1 and HeLa (human cervical adenocarcinoma) cells, EV11 in BS-C-1 (African green monkey kidney, primary) and HEL (human embryonic lung, primary) cells. Propogation of virus strains in two different cell lines is performed as different cell types may utilize different ion transport pathways.
(§2) Antiviral assays are determined as follows. Monolayers of HeLa T cells (human cervical adenocarcinoma) in 12-well plates are infected with 0.01 plaque forming units per cell of Rhinovirus 2 in minimum essential medium with Earle's salts (MEM) supplemented with 1% v/v fetal bovine serum (FBS) or mock-infected with medium for 1 hour. […] Cells are further incubated for 70 hours at 34° C., until extensive cell death is observed in the no drug control. Cells plus culture supernatants are freeze-thawed and virus titre in each sample is determined by plaque assay.

Enterovirus = experiment: as above; format: cell-based
Description: as §1, §2

HeLa cells = experiment: Cytotoxicity on uninfected cells, Alamar Blue metabolic activity; conditions: uninfected HeLa T cells, 70 hours at 34° C.

## COc1ccc(CCN(C)CCCC(C#N)(c2ccc(OC)c(OC)c2)C(C)C)cc1OC (centres unmarked) [Verapamil]
Rhinovirus
  effectiveness against Rhinovirus: particularly effective

## N=C(NCc1ccccc1)NC(=O)c1nc(Cl)c(N)nc1N [Benzamil]
Enterovirus
  effectiveness against Enterovirus: particularly effective

## N=C(N)NC(=O)c1nc(Cl)c(N)nc1N [Amiloride]
Enterovirus
  effectiveness against Enterovirus: particularly effective

## CCN(c1nc(N)c(C(=O)NC(=N)N)nc1Cl)C(C)C [EIPA, 5-(N-ethyl-N-isopropyl)amiloride]
Rhinovirus
  effectiveness against Rhinovirus: particularly effective
HeLa cells
  toxicity to HeLa cells compared to the inhibition of virus production: far less toxic
